# Assay results taken from patent publication US20090203731A1, “TREATMENT OF DEPRESSION AND OTHER AFFECTIVE DISORDERS” (H. Lundbeck A/S, priority 2003, published 2009).
# How the values were obtained:
# Assay type in all cases: in vivo
# [1] = test system: rat chronic mild stress (CMS) model of depression; test: rat chronic mild stress (CMS) model of depression, sucrose consumption; details: male Wistar rats
# Text: The rat chronic mild stress (CMS) model of depression has a high degree of predictive validity for antidepressant activity (Willner, 1997, Psychopharmacol. 134, 319-329). Furthermore, the procedure is an appropriate model to study onset of antidepressant action in animals (C. Sánchez et al., 2003, Behavioural Pharmacology 14, 465-470). The principle of the model is based on the relation between stress and affective disorders. Rats exposed to chronic stress will show a reduced sensitivity to rewards (e.g. a palatable sucrose solution).
# Male Wistar rats (Gorzkowska, Warsaw) were brought into the laboratory two months before the start of the experiment. The animals were singly housed with food and water freely available, and maintained on a 12-h light/dark cycle at a temperature of 22±2° C., except as described below.
# The animals were first trained to consume a 1% sucrose solution; training consisted of eight 1 h baseline tests in which sucrose was presented, in the home cage, following 14 h food and water deprivation; intake was measured by weighing pre-weighed bottles containing the sucrose solution, at the end of the test. Subsequently, sucrose consumption was monitored, under similar conditions, throughout the whole experiment. […] Body weights were assessed a baseline and by the end of drug treatment.
# [2] = test system: 5-HTP-induced behaviour in mice; test: mouse 5-HTP potentiation test (potentiation of 5-HTP-induced behaviour); details: gaboxadol 2.5 mg/kg with escitalopram 0.5 to 0.025 mg/kg, s.c., 30 min before i.v. 5-HTP 100 mg/kg, male NMRI/BOM mice
# Text: (§1) In order to modulate the activity of systems responsible for antidepressant activity, we have characterized the interaction between gaboxadol and escitalopram (an SSRI) in a behavioral model of serotonin reuptake inhibition, i.e. the mouse 5-HTP potentiation test, and a model that is predictive of antidepressant activity, i.e. the mouse forced swim test (cf. C. Sánchez et al., 2003, Psychopharmacology 167, 353-362).
# (§2) Male NMRI/BOM mice (18-25 g; Bomholtgaard, Denmark) were used. The mice were housed in plastic cages (35×30×12 cm), 10 animals in each, and habituated to the animal facilities for at least a week before test. The room temperature (21±2° C.), relative humidity (55±5%), and air exchange (16 times per h) were automatically controlled. The animals had free access to commercial food pellets and tap water before test.
# The test procedure for studies in mice is described in detail by Hyttel et al., 1992, J. Neural. Transm. Gen. Sect. 88, 157-60. Briefly, 30 min after subcutaneous (s.c.) administration of test compound, mice were given intravenous (i.v.) 5-HTP (100 mg/kg). Thereafter the animals were evaluated in their home cage during a 15-min observation period with respect to stereotypy (lateral head movements), tremor, and hind limb abduction. One point was given for each symptom being present. A total of 8-16 mice were used per dose. Inhibition of forced swimming-induced immobility.
# [3] = test system: forced swimming-induced immobility in mice; test: mouse forced swim test (inhibition of forced swimming-induced immobility); details: male NMRI/BOM mice
# Text: as §1, §2
# A mouse that is forced to swim in a spatially constrained container will exert a characteristic immobile posture. Pretreatment with an antidepressant will counteract this effect. The test was conducted as described in detail by Sánchez and Meier (Psychopharmacol. 129, 197-205, 1997). Briefly, a fully automated test system with 6 swim units (2000 ml glass jars filled with 1200 ml soiled water (23-25° C.) in which a mouse had been placed previously) was used. […] The accumulated duration of immobility was measured during the last 3 min. […]
compound,measurement,setting,value
"Oc1noc2c1CCNC2 [gaboxadol, Gaboxadol]",effect in the rat chronic mild stress model at 2.5 mg/kg per day,"[1]; 2.5 mg/kg per day, intraperitoneal",clear and significant effect
same,anti-depressant-like effect in the rat chronic mild stress model,[1]; twice daily intraperitoneal injections for five weeks,significant anti-depressant-like effect
same,potentiation of the acute effects of escitalopram in the 5-HTP potentiation test,[2],strongly potentiated the acute effects of escitalopram
same,activity by itself in the forced swim test,"[3]; gaboxadol 2.5 mg/kg alone, 30 min before test",not active by itself
same,potentiation of the antidepressant-like effect of escitalopram in the forced swim test,[3]; gaboxadol 2.5 mg/kg with escitalopram 2.5 and 5 mg/kg,potentiated the antidepressant-like effect of escitalopram (2.5 and 5 mg/kg) significantly
